Data published in ChEMBL document CHEMBL4507289, “Data for DCP probe GSM1” (2021).

What was measured:
[1] = target: Calcium/calmodulin-dependent protein kinase type II subunit alpha (Homo sapiens) (UniProt Q9UQM7); details: Compound concentration 1000.0 nM
[2] = target: Mitogen-activated protein kinase kinase kinase 9 (Homo sapiens) (UniProt P80192); details: Compound concentration 1000.0 nM
[3] = target: Angiopoietin-1 receptor (Homo sapiens) (UniProt Q02763); details: Compound concentration 1000.0 nM
[4] = target: Cyclin-dependent kinase 18 (Homo sapiens) (UniProt Q07002); details: Compound concentration 1000.0 nM
[5] = target: Serine/threonine-protein kinase mTOR (Homo sapiens) (UniProt P42345); details: Compound concentration 1000.0 nM
[6] = target: SRSF protein kinase 3 (Homo sapiens) (UniProt Q9UPE1); details: Compound concentration 1000.0 nM
[7] = target: Receptor-interacting serine/threonine-protein kinase 4 (Homo sapiens) (UniProt P57078); details: Compound concentration 1000.0 nM
[8] = target: Myosin light chain kinase (Homo sapiens) (UniProt Q32MK0); details: Compound concentration 1000.0 nM
[9] = target: Ephrin type-A receptor 8 (Homo sapiens) (UniProt P29322); details: Compound concentration 1000.0 nM
[10] = target: Tyrosine-protein kinase JAK1 (Homo sapiens) (UniProt P23458); details: Compound concentration 1000.0 nM
[11] = tested on: Epidermal growth factor receptor (Homo sapiens), P00533 [UNDEFINED MUTATION]; details: Compound concentration 1000.0 nM
[12] = target: cGMP-dependent protein kinase 1 (Homo sapiens) (UniProt Q13976); details: Compound concentration 1000.0 nM
[13] = target: Testis-specific serine/threonine-protein kinase 1 (Homo sapiens) (UniProt Q9BXA7); details: Compound concentration 1000.0 nM
[14] = target: Serine/threonine-protein kinase ULK2 (Homo sapiens) (UniProt Q8IYT8); details: Compound concentration 1000.0 nM
[15] = target: Mitogen-activated protein kinase kinase kinase kinase 1 (Homo sapiens) (UniProt Q92918); details: Compound concentration 1000.0 nM
[16] = target: D(1B) dopamine receptor (Homo sapiens) (UniProt P21918); details: Compound concentration 10.0 uM
[17] = target: Histamine H1 receptor (Homo sapiens) (UniProt P35367); details: Compound concentration 10.0 uM
[18] = tested on: Receptor-type tyrosine-protein kinase FLT3 (Homo sapiens), P36888 [UNDEFINED MUTATION]; details: Compound concentration 1000.0 nM
[19] = target: Rhodopsin kinase GRK7 (Homo sapiens) (UniProt Q8WTQ7); details: Compound concentration 1000.0 nM
[20] = target: Activated CDC42 kinase 1 (Homo sapiens) (UniProt Q07912); details: Compound concentration 1000.0 nM
[21] = target: Serine/threonine-protein kinase tousled-like 2 (Homo sapiens) (UniProt Q86UE8); details: Compound concentration 1000.0 nM
[22] = target: Dual specificity protein kinase TTK (Homo sapiens) (UniProt P33981); details: Compound concentration 1000.0 nM
[23] = tested on: Phosphatidylinositol 4,5-bisphosphate 3-kinase catalytic subunit alpha isoform (Homo sapiens), P42336 [I800L]; details: Compound concentration 1000.0 nM
[24] = tested on: Tyrosine-protein kinase ABL1 (Homo sapiens), P00519 [H396P]; details: Compound concentration 1000.0 nM
[25] = target: Mitogen-activated protein kinase kinase kinase kinase 4 (Homo sapiens) (UniProt O95819); details: Compound concentration 1000.0 nM
[26] = target: Calcium/calmodulin-dependent protein kinase type II subunit delta (Homo sapiens) (UniProt Q13557); details: Compound concentration 1000.0 nM
[27] = target: Inhibitor of nuclear factor kappa-B kinase subunit beta (Homo sapiens) (UniProt O14920); details: Compound concentration 1000.0 nM
[28] = target: Serine/threonine-protein kinase SIK3 (Homo sapiens) (UniProt Q9Y2K2); details: Compound concentration 1000.0 nM
[29] = target: Tyrosine-protein kinase Yes (Homo sapiens) (UniProt P07947); details: Compound concentration 1000.0 nM
[30] = target: Cyclin-dependent kinase 5 (Homo sapiens) (UniProt Q00535); details: Compound concentration 1000.0 nM
[31] = target: 5-hydroxytryptamine receptor 7 (Homo sapiens) (UniProt P34969); details: Compound concentration 10.0 uM
[32] = tested on: Mast/stem cell growth factor receptor Kit (Homo sapiens), P10721 [D816H]; details: Compound concentration 1000.0 nM
[33] = target: Testis-specific serine/threonine-protein kinase 3 (Homo sapiens) (UniProt Q96PN8); details: Compound concentration 1000.0 nM
[34] = target: Tyrosine-protein kinase Mer (Homo sapiens) (UniProt Q12866); details: Compound concentration 1000.0 nM
[35] = target: 5-hydroxytryptamine receptor 2B (Homo sapiens) (UniProt P41595); details: Compound concentration 10.0 uM
[36] = target: Platelet-derived growth factor receptor beta (Homo sapiens) (UniProt P09619); details: Compound concentration 1000.0 nM
[37] = target: Mitogen-activated protein kinase kinase kinase 2 (Homo sapiens) (UniProt Q9Y2U5); details: Compound concentration 1000.0 nM
[38] = target: Serine/threonine-protein kinase Sgk1 (Homo sapiens) (UniProt O00141); details: Compound concentration 1000.0 nM
[39] = target: cAMP-dependent protein kinase catalytic subunit PRKX (Homo sapiens) (UniProt P51817); details: Compound concentration 1000.0 nM
[40] = target: Death-associated protein kinase 3 (Homo sapiens) (UniProt O43293); details: Compound concentration 1000.0 nM
[41] = target: 5-hydroxytryptamine receptor 2A (Homo sapiens) (UniProt P28223); details: Compound concentration 10.0 uM
[42] = target: Dual specificity protein kinase CLK2 (Homo sapiens) (UniProt P49760); details: Compound concentration 1000.0 nM
[43] = target: Mitogen-activated protein kinase kinase kinase kinase 5 (Homo sapiens) (UniProt Q9Y4K4); details: Compound concentration 1000.0 nM
[44] = target: Dual specificity mitogen-activated protein kinase kinase 6 (Homo sapiens) (UniProt P52564); details: Compound concentration 1000.0 nM
[45] = target: Receptor tyrosine-protein kinase erbB-4 (Homo sapiens) (UniProt Q15303); details: Compound concentration 1000.0 nM

Sequence of cAMP-dependent protein kinase catalytic subunit PRKX (Homo sapiens) (P51817 whole entry): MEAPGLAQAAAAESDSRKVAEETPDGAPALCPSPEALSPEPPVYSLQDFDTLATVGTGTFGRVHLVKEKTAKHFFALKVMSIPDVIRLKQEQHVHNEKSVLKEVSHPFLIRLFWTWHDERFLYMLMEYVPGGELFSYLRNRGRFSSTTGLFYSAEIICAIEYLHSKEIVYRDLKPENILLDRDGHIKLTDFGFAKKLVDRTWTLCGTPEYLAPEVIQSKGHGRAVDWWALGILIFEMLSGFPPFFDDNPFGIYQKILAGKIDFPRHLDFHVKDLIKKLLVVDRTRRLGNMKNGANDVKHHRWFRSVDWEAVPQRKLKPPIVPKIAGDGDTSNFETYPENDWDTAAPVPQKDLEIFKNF
Sequence of Calcium/calmodulin-dependent protein kinase type II subunit delta (Homo sapiens) (Q13557 whole entry): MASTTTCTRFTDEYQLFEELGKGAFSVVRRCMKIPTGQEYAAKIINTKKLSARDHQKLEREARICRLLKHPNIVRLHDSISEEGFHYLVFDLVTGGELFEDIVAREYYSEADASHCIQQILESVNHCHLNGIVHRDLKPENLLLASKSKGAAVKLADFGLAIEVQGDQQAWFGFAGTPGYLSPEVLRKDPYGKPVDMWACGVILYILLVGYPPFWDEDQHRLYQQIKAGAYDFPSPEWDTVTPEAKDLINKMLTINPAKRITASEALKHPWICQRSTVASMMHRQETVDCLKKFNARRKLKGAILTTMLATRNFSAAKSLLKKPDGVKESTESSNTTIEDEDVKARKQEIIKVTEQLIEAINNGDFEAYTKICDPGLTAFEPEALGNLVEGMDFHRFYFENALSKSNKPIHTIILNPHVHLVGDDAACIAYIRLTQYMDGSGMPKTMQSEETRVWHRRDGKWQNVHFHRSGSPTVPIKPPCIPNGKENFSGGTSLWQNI
Sequence of Cyclin-dependent kinase 5 (Homo sapiens) (Q00535 whole entry, looked up): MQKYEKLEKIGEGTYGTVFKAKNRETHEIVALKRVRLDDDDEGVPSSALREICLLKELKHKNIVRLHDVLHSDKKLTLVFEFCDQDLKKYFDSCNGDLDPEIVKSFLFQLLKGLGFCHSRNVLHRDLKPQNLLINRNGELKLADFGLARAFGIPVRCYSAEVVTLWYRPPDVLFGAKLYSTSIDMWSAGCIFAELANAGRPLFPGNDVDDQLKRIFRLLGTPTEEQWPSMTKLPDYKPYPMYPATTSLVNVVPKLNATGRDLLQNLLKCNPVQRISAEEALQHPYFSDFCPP
Sequence of Rhodopsin kinase GRK7 (Homo sapiens) (Q8WTQ7 whole entry): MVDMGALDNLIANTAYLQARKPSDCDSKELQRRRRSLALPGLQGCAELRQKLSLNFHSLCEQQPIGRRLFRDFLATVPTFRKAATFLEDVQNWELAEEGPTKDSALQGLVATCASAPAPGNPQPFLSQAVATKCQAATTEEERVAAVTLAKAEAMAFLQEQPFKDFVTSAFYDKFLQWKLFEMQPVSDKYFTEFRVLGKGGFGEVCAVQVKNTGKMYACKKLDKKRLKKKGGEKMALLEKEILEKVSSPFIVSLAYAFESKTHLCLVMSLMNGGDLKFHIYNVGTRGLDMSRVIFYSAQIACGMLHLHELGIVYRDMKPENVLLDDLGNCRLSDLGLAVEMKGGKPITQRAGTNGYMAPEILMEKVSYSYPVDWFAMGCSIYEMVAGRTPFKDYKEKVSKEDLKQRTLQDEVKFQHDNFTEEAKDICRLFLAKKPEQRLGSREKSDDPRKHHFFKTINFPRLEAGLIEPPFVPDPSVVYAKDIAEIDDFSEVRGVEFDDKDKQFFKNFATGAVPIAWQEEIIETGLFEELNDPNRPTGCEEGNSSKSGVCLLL
Sequence of Serine/threonine-protein kinase SIK3 (Homo sapiens) (Q9Y2K2 whole entry, looked up): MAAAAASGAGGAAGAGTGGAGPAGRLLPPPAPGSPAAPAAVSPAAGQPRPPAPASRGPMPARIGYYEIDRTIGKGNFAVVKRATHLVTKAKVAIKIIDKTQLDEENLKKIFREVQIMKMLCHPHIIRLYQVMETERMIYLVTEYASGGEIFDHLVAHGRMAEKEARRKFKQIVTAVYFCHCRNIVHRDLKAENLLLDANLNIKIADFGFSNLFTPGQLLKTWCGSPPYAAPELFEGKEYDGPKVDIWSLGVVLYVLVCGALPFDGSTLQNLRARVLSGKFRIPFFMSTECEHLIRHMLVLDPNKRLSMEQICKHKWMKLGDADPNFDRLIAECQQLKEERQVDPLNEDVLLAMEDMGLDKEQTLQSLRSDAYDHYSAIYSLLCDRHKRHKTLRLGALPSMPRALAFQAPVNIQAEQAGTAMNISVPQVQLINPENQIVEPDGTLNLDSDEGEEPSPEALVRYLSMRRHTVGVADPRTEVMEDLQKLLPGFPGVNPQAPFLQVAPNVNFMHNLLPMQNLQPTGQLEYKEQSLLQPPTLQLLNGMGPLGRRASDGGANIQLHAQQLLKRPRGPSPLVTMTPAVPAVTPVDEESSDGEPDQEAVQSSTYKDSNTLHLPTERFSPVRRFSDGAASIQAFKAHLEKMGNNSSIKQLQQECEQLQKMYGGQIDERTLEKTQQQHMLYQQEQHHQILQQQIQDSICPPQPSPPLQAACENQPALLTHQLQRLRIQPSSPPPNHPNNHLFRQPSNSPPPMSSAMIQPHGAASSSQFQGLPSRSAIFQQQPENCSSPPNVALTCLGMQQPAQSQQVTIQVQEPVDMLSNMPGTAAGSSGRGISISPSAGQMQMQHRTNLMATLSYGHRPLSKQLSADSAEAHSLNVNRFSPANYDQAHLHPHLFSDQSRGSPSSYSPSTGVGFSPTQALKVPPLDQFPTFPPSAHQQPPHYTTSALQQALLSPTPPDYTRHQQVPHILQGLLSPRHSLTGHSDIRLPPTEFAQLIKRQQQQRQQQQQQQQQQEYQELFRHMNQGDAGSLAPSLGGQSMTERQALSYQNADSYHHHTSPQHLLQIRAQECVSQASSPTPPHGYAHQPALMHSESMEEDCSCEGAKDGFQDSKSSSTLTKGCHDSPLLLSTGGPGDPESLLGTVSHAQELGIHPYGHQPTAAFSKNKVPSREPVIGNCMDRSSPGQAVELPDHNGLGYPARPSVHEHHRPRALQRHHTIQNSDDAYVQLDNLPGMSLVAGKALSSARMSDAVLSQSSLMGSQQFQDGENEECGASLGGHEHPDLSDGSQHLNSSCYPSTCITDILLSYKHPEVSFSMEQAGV
Sequence of Angiopoietin-1 receptor (Homo sapiens) (Q02763 whole entry): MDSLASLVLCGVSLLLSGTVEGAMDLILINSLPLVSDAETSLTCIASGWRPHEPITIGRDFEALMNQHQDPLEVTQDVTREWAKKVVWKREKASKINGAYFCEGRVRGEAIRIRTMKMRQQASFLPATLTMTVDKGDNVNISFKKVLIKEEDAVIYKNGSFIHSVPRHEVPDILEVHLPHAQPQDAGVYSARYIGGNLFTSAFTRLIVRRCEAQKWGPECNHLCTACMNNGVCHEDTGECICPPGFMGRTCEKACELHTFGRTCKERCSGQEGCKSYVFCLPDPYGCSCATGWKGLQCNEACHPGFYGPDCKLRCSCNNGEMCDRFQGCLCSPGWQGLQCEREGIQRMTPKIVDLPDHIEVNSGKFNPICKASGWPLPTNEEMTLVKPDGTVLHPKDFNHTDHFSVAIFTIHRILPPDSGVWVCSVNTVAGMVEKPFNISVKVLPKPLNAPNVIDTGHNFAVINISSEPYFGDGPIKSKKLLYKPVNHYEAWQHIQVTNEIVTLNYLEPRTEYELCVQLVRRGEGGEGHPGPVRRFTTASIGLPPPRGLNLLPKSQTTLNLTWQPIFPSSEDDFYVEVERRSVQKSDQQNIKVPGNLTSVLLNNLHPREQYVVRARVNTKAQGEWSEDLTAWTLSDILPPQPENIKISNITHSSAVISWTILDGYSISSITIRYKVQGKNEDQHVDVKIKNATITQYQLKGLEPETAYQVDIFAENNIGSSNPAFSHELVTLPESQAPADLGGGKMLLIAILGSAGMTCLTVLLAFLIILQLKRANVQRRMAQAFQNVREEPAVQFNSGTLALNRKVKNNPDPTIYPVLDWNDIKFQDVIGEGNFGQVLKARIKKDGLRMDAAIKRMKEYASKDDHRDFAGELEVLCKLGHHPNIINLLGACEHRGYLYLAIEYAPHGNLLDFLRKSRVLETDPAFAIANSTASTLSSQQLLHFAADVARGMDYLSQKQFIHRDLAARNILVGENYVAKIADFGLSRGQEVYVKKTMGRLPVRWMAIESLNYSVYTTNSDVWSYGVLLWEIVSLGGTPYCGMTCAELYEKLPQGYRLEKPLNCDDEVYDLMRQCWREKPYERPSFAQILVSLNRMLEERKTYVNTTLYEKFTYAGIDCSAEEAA
Sequence of D(1B) dopamine receptor (Homo sapiens) (P21918 whole entry): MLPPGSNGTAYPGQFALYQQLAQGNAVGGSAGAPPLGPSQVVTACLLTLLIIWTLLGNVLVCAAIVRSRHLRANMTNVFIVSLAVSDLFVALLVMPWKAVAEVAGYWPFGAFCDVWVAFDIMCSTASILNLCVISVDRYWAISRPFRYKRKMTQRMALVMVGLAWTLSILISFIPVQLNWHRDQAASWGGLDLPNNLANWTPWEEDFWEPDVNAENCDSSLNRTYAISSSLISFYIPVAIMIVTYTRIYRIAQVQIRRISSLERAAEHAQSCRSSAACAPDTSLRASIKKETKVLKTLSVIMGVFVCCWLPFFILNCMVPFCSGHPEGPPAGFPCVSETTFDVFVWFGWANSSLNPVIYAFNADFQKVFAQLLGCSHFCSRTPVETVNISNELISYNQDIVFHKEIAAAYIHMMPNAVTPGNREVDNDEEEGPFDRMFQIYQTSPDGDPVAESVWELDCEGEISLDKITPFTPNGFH
Sequence of Dual specificity mitogen-activated protein kinase kinase 6 (Homo sapiens) (P52564 whole entry): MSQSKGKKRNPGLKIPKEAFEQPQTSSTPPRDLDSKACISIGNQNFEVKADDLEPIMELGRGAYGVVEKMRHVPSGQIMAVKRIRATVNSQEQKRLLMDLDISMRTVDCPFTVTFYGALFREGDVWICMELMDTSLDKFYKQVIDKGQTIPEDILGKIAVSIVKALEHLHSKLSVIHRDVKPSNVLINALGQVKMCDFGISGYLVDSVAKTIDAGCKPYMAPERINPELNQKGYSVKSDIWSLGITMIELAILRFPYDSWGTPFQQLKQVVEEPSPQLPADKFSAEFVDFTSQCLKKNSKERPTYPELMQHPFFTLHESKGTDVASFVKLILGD

COc1cc(-c2cn([C@H]3CCc4ccccc4N(CC(F)(F)F)C3=O)nn2)ccc1-n1ccc(C)n1
residual activity [1]: 85% | residual activity [2]: 91% | residual activity [3]: 81% | residual activity [4]: 100% | residual activity [5]: 100% | residual activity [6]: 100% | residual activity [7]: 52% | residual activity [8]: 100% | residual activity [9]: 100% | residual activity [10]: 87% | residual activity [11]: 100% | residual activity [12]: 100% | residual activity [13]: 83% | residual activity [14]: 88% | residual activity [15]: 100% | inhibition [16]: 20.1% | inhibition [17]: 9.72% | residual activity [18]: 99% | residual activity [19]: 87% | residual activity [20]: 100% | residual activity [21]: 97% | residual activity [22]: 100% | residual activity [23]: 76% | residual activity [24]: 47% | residual activity [25]: 100% | residual activity [26]: 100% | residual activity [27]: 99% | residual activity [28]: 92% | residual activity [29]: 100% | residual activity [30]: 100% | inhibition [31]: 5.84% | residual activity [32]: 75% | residual activity [33]: 100% | residual activity [34]: 100% | inhibition [35]: 6.39% | residual activity [36]: 100% | residual activity [37]: 100% | residual activity [38]: 88% | residual activity [39]: 95% | residual activity [40]: 100% | inhibition [41]: 5.83% | residual activity [42]: 100% | residual activity [43]: 100% | residual activity [44]: 100% | residual activity [45]: 100%

COc1cc(-c2cn([C@H]3CCc4c(F)cccc4N(CC(F)(F)F)C3=O)nn2)ccc1-n1cnc(C)c1
residual activity [1]: 100% | residual activity [2]: 100% | residual activity [3]: 100% | residual activity [4]: 100% | residual activity [5]: 100% | residual activity [6]: 100% | residual activity [7]: 56% | residual activity [8]: 92% | residual activity [9]: 100% | residual activity [10]: 100% | residual activity [11]: 0% | residual activity [12]: 100% | residual activity [13]: 100% | residual activity [14]: 100% | residual activity [15]: 100% | inhibition [16]: -8.33% | inhibition [17]: 7.55% | residual activity [18]: 100% | residual activity [19]: 100% | residual activity [20]: 100% | residual activity [21]: 100% | residual activity [22]: 100% | residual activity [23]: 66% | residual activity [24]: 52% | residual activity [25]: 0% | residual activity [26]: 100% | residual activity [27]: 100% | residual activity [28]: 100% | residual activity [29]: 100% | residual activity [30]: 100% | inhibition [31]: 26.8% | residual activity [32]: 67% | residual activity [33]: 97% | residual activity [34]: 100% | inhibition [35]: 5.58% | residual activity [36]: 100% | residual activity [37]: 94% | residual activity [38]: 90% | residual activity [39]: 100% | residual activity [40]: 100% | inhibition [41]: 11.5% | residual activity [42]: 100% | residual activity [43]: 5.8% | residual activity [44]: 100% | residual activity [45]: 100%
